Measured values reported in patent US9440952B2, “Compounds inhibiting leucine-rich repeat kinase enzyme activity” (Merck Sharp & Dohme Corp., priority 2013, dated 2016).

How the values were obtained:
Format in all cases: biochemical
[1] = target: T1, LRRK2(G2019S mutation, GST-LRRK2(amino acids 970-2527)) (Homo sapiens, UniProt Q5S007, G2019S); assay: LRRK2 Km ATP LanthaScreen Assay; settings: Km ATP LanthaScreen; mean IC50 of several tests; read-out: LRRK2 IC50
T1 construct: GST-LRRK2(amino acids 970-2527); GST (N); purchased Life Technologies Corporation
T1 sequence (Q5S007 970-2527 G2019S): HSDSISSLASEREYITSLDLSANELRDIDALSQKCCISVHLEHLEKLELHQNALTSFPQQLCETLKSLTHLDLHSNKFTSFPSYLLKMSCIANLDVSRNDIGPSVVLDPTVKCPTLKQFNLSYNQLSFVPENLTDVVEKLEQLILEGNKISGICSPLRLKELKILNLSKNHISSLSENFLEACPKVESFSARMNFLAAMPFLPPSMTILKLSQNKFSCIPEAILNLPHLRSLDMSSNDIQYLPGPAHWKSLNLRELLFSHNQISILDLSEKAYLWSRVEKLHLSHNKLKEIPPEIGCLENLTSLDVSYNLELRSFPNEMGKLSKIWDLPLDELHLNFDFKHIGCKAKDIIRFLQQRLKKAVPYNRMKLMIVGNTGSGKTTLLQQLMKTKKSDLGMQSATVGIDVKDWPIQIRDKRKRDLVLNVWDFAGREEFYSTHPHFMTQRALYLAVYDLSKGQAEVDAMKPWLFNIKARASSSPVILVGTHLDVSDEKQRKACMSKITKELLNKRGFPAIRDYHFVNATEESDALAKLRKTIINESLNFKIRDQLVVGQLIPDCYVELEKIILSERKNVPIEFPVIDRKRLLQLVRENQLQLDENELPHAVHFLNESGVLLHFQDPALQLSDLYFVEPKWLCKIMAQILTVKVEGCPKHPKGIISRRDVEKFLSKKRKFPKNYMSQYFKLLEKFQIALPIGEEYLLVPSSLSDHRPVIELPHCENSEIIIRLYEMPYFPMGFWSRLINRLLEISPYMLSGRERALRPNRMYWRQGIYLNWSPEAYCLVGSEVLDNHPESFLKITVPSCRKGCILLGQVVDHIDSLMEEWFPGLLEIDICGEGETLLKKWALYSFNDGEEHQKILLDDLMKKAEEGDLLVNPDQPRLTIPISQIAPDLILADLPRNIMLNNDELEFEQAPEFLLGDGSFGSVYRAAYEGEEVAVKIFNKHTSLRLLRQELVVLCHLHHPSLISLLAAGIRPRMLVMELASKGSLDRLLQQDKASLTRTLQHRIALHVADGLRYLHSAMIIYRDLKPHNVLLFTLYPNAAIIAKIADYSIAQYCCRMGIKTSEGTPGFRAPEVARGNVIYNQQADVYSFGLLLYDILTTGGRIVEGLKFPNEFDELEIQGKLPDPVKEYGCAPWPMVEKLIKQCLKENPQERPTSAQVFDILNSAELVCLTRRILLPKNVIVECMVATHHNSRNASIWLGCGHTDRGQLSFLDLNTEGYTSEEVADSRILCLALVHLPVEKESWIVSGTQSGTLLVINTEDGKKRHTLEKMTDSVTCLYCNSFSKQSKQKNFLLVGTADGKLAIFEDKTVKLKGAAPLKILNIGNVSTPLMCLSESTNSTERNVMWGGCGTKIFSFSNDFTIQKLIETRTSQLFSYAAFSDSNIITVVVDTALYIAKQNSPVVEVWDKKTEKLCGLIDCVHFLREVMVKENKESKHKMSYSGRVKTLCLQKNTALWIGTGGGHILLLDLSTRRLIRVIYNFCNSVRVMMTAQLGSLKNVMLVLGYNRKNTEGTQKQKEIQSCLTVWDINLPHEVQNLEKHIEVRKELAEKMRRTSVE
Procedure, shortened: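 IC50 values are means of several runs in the Km-ATP LanthaScreen format, analysed by curve fitting of the LanthaScreen read-out.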

[2] = target: T1, LRRK2(G2019S mutation, GST-LRRK2(amino acids 970-2527)); assay: LRRK2 5 mM ATP LanthaScreen Assay; settings: mean IC50 of several tests
Experimental: The data presented for the 5 mM and Km ATP LanthaScreen™ Assay represents mean IC50 values based on several test results and may have reasonable. deviations depending on the specific conditions and reagents used. Reagents for the LRRK2 5 mM and Km ATP LanthaScreen™ Assay were purchased from Life Technologies Corporation.
LRRK2 5 mM ATP LanthaScreen™ Assay • a) 400 nl of a 1:2.15 serial dilution of test compound (98 μM top assay concentration) is spotted via Labcyte Echo to certain wells in a 384 well black, untreated plate. […] Results are analysed using Assay Data Analyzer.

kinases (Table B) [3] = target: T2, kinases (Table B) (Homo sapiens, UniProt Q96GD4); assay: Kinase selectivity, Z'-LYTE or Adapta assay platforms (Life Technologies); settings: AURKB (Aurora B), Z-LYTE, read-out: percent inhibition AURKB (Aurora B); for inhibition at 1 µM: test conc 1 μM
T2 construct: purchased Life Technologies Corporation
T2 sequence (Q96GD4 whole entry): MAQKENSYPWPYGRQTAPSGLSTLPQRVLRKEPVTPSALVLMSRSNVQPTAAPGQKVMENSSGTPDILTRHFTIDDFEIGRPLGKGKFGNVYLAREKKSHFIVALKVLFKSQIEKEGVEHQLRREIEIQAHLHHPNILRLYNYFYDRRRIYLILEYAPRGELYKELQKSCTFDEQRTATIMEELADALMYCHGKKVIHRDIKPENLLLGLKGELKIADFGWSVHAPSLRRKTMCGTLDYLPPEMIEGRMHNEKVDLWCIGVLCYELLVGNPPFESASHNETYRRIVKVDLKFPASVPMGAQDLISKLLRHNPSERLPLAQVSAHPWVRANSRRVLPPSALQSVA

kinases (Table B) [4] = assay: as above; settings: for percent inhibition CDK1/cyclin B / percent inhibition CLK2 / percent inhibition JAK3: Z-LYTE; for percent inhibition IRAK1: Adapta
kinases (Table B) [5] = target: T3, kinases (Table B) (Homo sapiens, UniProt P45983); assay: as above; settings: MAPK8 (JNK1), Z-LYTE, read-out: percent inhibition MAPK8 (JNK1); for inhibition at 1 µM: test conc 1 μM
T3 construct: purchased Life Technologies Corporation
T3 sequence (P45983 whole entry): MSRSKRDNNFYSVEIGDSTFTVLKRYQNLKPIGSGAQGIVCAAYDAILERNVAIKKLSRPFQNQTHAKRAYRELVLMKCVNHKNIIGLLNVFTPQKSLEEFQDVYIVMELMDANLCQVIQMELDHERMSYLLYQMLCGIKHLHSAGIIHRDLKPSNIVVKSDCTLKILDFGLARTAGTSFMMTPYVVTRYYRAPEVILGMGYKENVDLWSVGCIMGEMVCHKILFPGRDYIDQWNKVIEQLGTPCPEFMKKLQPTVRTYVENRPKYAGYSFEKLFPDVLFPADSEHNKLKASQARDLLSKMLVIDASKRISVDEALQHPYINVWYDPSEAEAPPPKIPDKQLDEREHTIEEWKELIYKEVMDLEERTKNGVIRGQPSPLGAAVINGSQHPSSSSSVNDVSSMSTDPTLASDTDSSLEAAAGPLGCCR

kinases (Table B) [6] = target: T4, kinases (Table B) (Homo sapiens, UniProt O96017); assay: as above; settings: CHEK2 (CHK2), Z-LYTE, read-out: percent inhibition CHEK2 (CHK2); for inhibition at 1 µM: test conc 1 μM
T4 construct: purchased Life Technologies Corporation
T4 sequence (O96017 whole entry): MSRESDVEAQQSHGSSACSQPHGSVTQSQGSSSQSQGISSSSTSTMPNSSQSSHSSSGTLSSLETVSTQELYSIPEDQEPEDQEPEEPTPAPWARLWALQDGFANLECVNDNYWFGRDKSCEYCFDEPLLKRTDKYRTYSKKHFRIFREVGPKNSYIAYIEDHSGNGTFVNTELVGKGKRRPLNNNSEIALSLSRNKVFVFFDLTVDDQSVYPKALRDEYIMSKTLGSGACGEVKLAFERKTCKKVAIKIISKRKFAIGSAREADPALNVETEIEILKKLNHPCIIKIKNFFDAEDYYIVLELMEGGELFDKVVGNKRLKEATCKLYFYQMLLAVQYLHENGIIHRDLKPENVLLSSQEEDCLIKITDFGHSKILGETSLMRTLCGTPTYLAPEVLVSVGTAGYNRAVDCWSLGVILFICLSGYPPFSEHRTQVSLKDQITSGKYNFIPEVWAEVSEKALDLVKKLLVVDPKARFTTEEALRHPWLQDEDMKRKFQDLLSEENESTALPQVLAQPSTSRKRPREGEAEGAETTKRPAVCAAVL

kinases (Table B) [7] = target: T5, kinases (Table B) (Homo sapiens, UniProt P28482); assay: as above; settings: MAPK1 (ERK2), Z-LYTE, read-out: percent inhibition MAPK1 (ERK2); for inhibition at 1 µM: test conc 1 μM
T5 construct: purchased Life Technologies Corporation
T5 sequence (P28482 whole entry): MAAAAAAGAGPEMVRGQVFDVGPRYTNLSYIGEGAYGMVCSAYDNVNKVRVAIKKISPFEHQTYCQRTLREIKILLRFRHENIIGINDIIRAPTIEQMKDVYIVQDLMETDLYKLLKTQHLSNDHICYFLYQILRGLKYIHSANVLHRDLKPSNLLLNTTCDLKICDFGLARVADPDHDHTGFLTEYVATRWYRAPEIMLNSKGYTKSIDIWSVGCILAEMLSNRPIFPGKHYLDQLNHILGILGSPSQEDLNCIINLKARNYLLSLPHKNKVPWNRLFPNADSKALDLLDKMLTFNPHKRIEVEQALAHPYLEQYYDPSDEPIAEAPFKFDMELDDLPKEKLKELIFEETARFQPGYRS

kinases (Table B) [8] = target: T6, kinases (Table B) (Homo sapiens, UniProt Q13627); assay: as above; settings: DYRK1A, Z-LYTE, read-out: percent inhibition DYRK1A; for inhibition at 1 µM: test conc 1 μM
T6 construct: purchased Life Technologies Corporation

kinases (Table B) [9] = target: T7, kinases (Table B) (Homo sapiens, UniProt P15056, V600E); assay: as above; settings: BRAF V599E, Z-LYTE, read-out: percent inhibition BRAF V599E; for inhibition at 1 µM: test conc 1 μM
T7 construct: purchased Life Technologies Corporation
T7 sequence (P15056 whole entry V600E): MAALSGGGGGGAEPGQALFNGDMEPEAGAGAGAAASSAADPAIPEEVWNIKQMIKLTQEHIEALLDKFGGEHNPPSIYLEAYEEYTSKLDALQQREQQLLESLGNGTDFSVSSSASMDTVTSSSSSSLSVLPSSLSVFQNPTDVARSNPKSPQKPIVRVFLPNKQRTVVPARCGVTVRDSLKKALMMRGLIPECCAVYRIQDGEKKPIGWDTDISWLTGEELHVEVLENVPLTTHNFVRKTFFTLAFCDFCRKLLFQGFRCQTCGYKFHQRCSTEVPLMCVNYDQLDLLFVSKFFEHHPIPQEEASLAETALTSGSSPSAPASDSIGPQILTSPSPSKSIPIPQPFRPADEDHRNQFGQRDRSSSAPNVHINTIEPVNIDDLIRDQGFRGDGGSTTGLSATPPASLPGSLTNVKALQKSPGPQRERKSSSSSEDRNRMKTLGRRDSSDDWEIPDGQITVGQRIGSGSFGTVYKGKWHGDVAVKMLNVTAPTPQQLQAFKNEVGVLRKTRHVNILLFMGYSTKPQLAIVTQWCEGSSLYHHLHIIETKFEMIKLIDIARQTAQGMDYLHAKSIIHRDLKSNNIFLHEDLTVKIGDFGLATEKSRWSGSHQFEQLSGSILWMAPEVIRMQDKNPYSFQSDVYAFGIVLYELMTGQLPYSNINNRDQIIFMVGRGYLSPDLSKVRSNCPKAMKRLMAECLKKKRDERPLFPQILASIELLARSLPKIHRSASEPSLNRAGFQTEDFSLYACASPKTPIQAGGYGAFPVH

Compound	IC50 [1] [nM]	IC50 [2] [nM]	inhibition at 1 µM (kinases (Table B) [3]) [%]	percent inhibition CDK1/cyclin B (kinases (Table B) [4]; test conc 1 μM) [%]	percent inhibition CLK2 (kinases (Table B) [4]; test conc 1 μM) [%]	percent inhibition IRAK1 (kinases (Table B) [4]; test conc 1 μM) [%]	percent inhibition JAK3 (kinases (Table B) [4]; test conc 1 μM) [%]	inhibition at 1 µM (kinases (Table B) [5]) [%]	inhibition at 1 µM (kinases (Table B) [6]) [%]	inhibition at 1 µM (kinases (Table B) [7]) [%]	inhibition at 1 µM (kinases (Table B) [8]) [%]	inhibition at 1 µM (kinases (Table B) [9]) [%]	other results
CC(C)Oc1ccc2[nH]nc(-c3ccnc(N4CCN(S(C)(=O)=O)CC4)c3)c2c1 [Example 289]	2.7	16	23	18	49	6	29	54	26	55	12	64	
Cn1cc(-c2ccc3[nH]nc(-c4ccnc(N5CCN(S(C)(=O)=O)CC5)c4)c3c2)cn1 [Example 381]	1.9	24											inhibition at 0.1 µM (kinases (Table B) [3]; test conc 0.100 μM): 13%; percent inhibition CDK1/cyclin B (kinases (Table B) [4]; test conc 0.100 μM): 26%; percent inhibition CLK2 (kinases (Table B) [4]; test conc 0.100 μM): 91%; percent inhibition IRAK1 (kinases (Table B) [4]; test conc 0.100 μM): 20%; percent inhibition JAK3 (kinases (Table B) [4]; test conc 0.100 μM): 4%; inhibition at 0.1 µM (kinases (Table B) [5]; test conc 0.100 μM): 25%; inhibition at 0.1 µM (kinases (Table B) [6]; test conc 0.100 μM): 19%; inhibition at 0.1 µM (kinases (Table B) [7]; test conc 0.100 μM): 11%; inhibition at 0.1 µM (kinases (Table B) [8]; test conc 0.100 μM): 78%; inhibition at 0.1 µM (kinases (Table B) [9]; test conc 0.100 μM): 11%
CC(C)Oc1ccc2[nH]nc(-c3ccnc(N4CCOCC4)c3)c2c1 [Example 400]	1.9	14	9	29	47	11	49	72	16	41	9	51	
